Test system: NQO1 specific enzyme activity in BEAS-2B cells (marker for NRF2 activation)
Experiment: BEAS-2B NQO1 MTT Assay
Assay type: cell-based
Details: NQO1 specific activity induction, 48 hours with compound
Excerpt: NAD(P)H:quinone oxidoreductase 1 (NQO1), also called DT diaphorase, is a homodimeric FAD-containing enzyme that catalyzes obligatory NAD(P)H-dependent two-electron reductions of quinones and protects cells against the toxic and neoplastic effects of free radicals and reactive oxygen species arising from one-electron reductions. The transcription of NQO1 is finely regulated by NRF2, and thus NQO1 activity is a good marker for NRF2 activation. On day one, frozen BEAS-2B cells (ATCC) were thawed in a water bath, counted, and re-suspended at a concentration of 250,000 cells/mL. Fifty microliters of cells were plated in 384 well black clear-bottomed plates. Plates were incubated at 37° C., 5% CO2 overnight. On day two, plates were centrifuged and 50 nL of compound or controls were added to the cells. Plates were then incubated at 37° C., 5% CO2 for 48 hours. On day four, medium was aspirated from the plate and crude cell lysates were made by adding 13 uL of 1× Cell Signaling Technologies lysis buffer with 1 Complete, Mini, EDTA-free Protease Inhibitor Tablet (Roche) for each 10 mL of lysis buffer. After lysis plates were incubated for 20 minutes at room temperature. Two microliters of lysate were removed for use in Cell Titer Glo assay (Promega) and MTT cocktail was prepared (Prochaska et. al. 1998) for measurement of NQO1 activity. Fifty microliters of MTT cocktail is added to each well, plate is centrifuged, and analyzed on an Envision plate reader (Perkin Elmer) using Absorbance 570 nm label for 30 minutes. Product formation was measured kinetically and the pEC50 of NQO1 specific activity induction was calculated by plotting the change in absorbance (Delta OD/min) versus the log of compound concentration followed by 3-parameter fitting.
pEC50 is the negative log of the EC50.
EC50s<1 nM (+++++), EC50s 1 nM-10 nM (++++), EC50s 10 nM-100 nM (+++), EC50s 100 nM-1 uM (++), EC50s 1 uM-10 uM (+), EC50s>10 uM (−), or were not determined (ND).

| SMILES | EC50 | EC50 (Homo sapiens, BEAS-2B, 48 h) |
| --- | --- | --- |
| CC[C@@H]1CN(Cc2nc(C(c3ccc4c(nnn4CC)c3C)C(C)(C)C(=O)O)sc2C)S(=O)(=O)c2ccccc2O1 (single isomer, unassigned; isomer 1) [Example 13, (R or S)-3-(4-(((R)-4-Ethyl-1,1-dioxido-3,4-dihydro-2H-benzo[b][1,4,5]oxathiazepin-2-yl)methyl)-5-methylthiazol-2-yl)-3-(1-ethyl-4-methyl-1H-benzo[d][1,2,3]triazol-5-yl)-2,2-dimethylpropanoic Acid Isomer 1] | 1 to 10 nM | – |
| CC[C@@H]1CN(Cc2cc(C(CC(=O)O)c3ccc4c(nnn4CC)c3C)sc2C)S(=O)(=O)c2ccccc2O1 (single isomer, unassigned; isomer 1) [Example 20, (R or S)-3-(4-(((R)-4-Ethyl-1,1-dioxido-3,4-dihydro-2H-benzo[b][1,4,5]oxathiazepin-2-yl)methyl)-5-methylthiophen-2-yl)-3-(1-ethyl-4-methyl-1H-benzo[d][1,2,3]triazol-5-yl)propanoic acid Isomer 1] | 10 to 100 nM | – |
| CC[C@@H]1CN(Cc2nc(C(c3ccc4c(nnn4CC)c3C)C(C)(C)C(=O)O)sc2C)S(=O)(=O)c2ccccc2O1 (single isomer, unassigned; isomer 2) [Example 14, (R or S)-3-(4-(((R)-4-Ethyl-1,1-dioxido-3,4-dihydro-2H-benzo[b][1,4,5]oxathiazepin-2-yl)methyl)-5-methylthiazol-2-yl)-3-(1-ethyl-4-methyl-1H-benzo[d][1,2,3]triazol-5-yl)-2,2-dimethylpropanoic Acid Isomer 2] | 10 to 100 nM | – |
| CC[C@@H]1CN(Cc2cc(C(CC(=O)O)c3ccc4c(nnn4CC)c3C)sc2C)S(=O)(=O)c2ccccc2O1 (single isomer, unassigned; isomer 2) [Example 21, (R or S)-3-(4-(((R)-4-Ethyl-1,1-dioxido-3,4-dihydro-2H-benzo[b][1,4,5]oxathiazepin-2-yl)methyl)-5-methylthiophen-2-yl)-3-(1-ethyl-4-methyl-1H-benzo[d][1,2,3]triazol-5-yl)propanoic Acid Isomer 2] | 100 to 1000 nM | – |
| CC[C@@H]1CN(Cc2cc([C@@H](CC(=O)O)c3ccc4c(nnn4CC)c3C)sc2Cl)S(=O)(=O)c2cnccc2O1 [Example 1, (S)-3-(5-Chloro-4-(((R)-4-ethyl-1,1-dioxido-3,4-dihydro-2H-pyrido[4,3-b][1,4,5]oxathiazepin-2-yl)methyl)thiophen-2-yl)-3-(1-ethyl-4-methyl-1H-benzo[d][1,2,3]triazol-5-yl)propanoic acid] | – | 100 to 1000 nM |
| CC[C@@H]1CN(Cc2cc([C@@H](CC(=O)O)c3ccc4c(nnn4CC)c3C)sc2Cl)S(=O)(=O)c2cccnc2O1 [Example 2, (S)-3-(5-Chloro-4-(((R)-4-ethyl-1,1-dioxido-3,4-dihydro-2H-pyrido[2,3-b][1,4,5]oxathiazepin-2-yl)methyl)thiophen-2-yl)-3-(1-ethyl-4-methyl-1H-benzo[d][1,2,3]triazol-5-yl)propanoic acid] | – | 1000 to 10000 nM |
| CC[C@@H]1CN(Cc2cc([C@@H](c3ccc4c(nnn4CC)c3C)C(C)(C)C(=O)O)sc2Cl)S(=O)(=O)c2ccccc2O1 [Example 3, (S)-3-(5-Chloro-4-(((R)-4-ethyl-1,1-dioxido-3,4-dihydro-2H-benzo[b][1,4,5]oxathiazepin-2-yl)methyl)thiophen-2-yl)-3-(1-ethyl-4-methyl-1H-benzo[d][1,2,3]triazol-5-yl)-2,2-dimethylpropanoic acid] | – | < 1 nM |
| CC[C@@H]1CN(Cc2cc([C@H](c3ccc4c(nnn4CC)c3C)C(C)(C)C(=O)O)sc2Cl)S(=O)(=O)c2ccccc2O1 [Example 4, (R)-3-(5-Chloro-4-(((R)-4-ethyl-1,1-dioxido-3,4-dihydro-2H-benzo[b][1,4,5]oxathiazepin-2-yl)methyl)thiophen-2-yl)-3-(1-ethyl-4-methyl-1H-benzo[d][1,2,3]triazol-5-yl)-2,2-dimethylpropanoic acid] | – | 100 to 1000 nM |

Reference: US11117905B2, “Bisaryl heterocycles as NRF2 activators” (GLAXOSMITHKLINE INTELLECTUAL PROPERTY DEVELOPMENT LIMITED, priority 2016, dated 2021)
